Measurements as given in ChEMBL document CHEMBL1201862, “PubChem BioAssay data set” (2004).
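Each compound was tested at five concentrations against cells in 96-well plates for 48 hours. GI50 is the concentration that inhibits growth by half.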 Active and inactive are the calls of the source. No stated cut-off is given here; in the data, active = GI50 up to about 1.1 µM and inactive = higher.

Tests used:
Assay in all cases: DTP human tumour cell line panel, 48 h
[1] = system: 786-0
[2] = system: A498
[3] = system: A549
[4] = system: ACHN
[5] = system: CAKI-1
[6] = system: CCRF-CEM
[7] = system: COLO 205
[8] = system: DLD-1
[9] = system: DMS-114
[10] = system: DMS-273
[11] = system: DU-145
[12] = system: EKVX
[13] = system: HCC 2998
[14] = system: HCT-116
[15] = system: HCT-15
[16] = system: HL-60
[17] = system: HOP-18
[18] = system: HOP-62
[19] = system: HOP-92
[20] = system: HT-29
[21] = system: Hs-578T
[22] = system: IGROV-1
[23] = system: K562
[24] = system: KM-20L2
[25] = system: KM12
[26] = system: LOX IMVI
[27] = system: LXFL 529
[28] = system: M14
[29] = system: M19-MEL
[30] = system: MCF7
[31] = system: MDA-MB-231
[32] = system: MDA-MB-435
[33] = system: MDA-N
[34] = system: MOLT-4
[35] = system: Malme-3M
[36] = system: NCI-H226
[37] = system: NCI-H23
[38] = system: NCI-H460
[39] = system: NCI-H522
[40] = system: NCI/ADR-RES
[41] = system: OVCAR-3
[42] = system: OVCAR-4
[43] = system: OVCAR-5
[44] = system: OVCAR-8
[45] = system: PC-3
[46] = system: RPMI-8226
[47] = system: RXF 393
[48] = system: SF-268
[49] = system: SF-295
[50] = system: SF-539
[51] = system: SK-MEL-28
[52] = system: SK-MEL-2
[53] = system: SK-MEL-5
[54] = system: SK-OV-3
[55] = system: SN12C
[56] = system: SNB-19
[57] = system: SNB-75
[58] = system: SNB-78
[59] = system: SR
[60] = system: SW-620
[61] = system: T47D
[62] = system: TK-10
[63] = system: U-251
[64] = system: UACC-257
[65] = system: UACC-62
[66] = system: UO-31

Compound: O=C(CCC1CCCCN1)Nc1ccc2c(c1)C(=O)c1ccc(NC(=O)CCN3CCCCC3)cc1C2=O (stereo unspecified)
- GI50 [1]: 9750 nM (inactive)
- GI50 [2]: 4140 nM (inactive)
- GI50 [3]: 5190 nM (inactive)
- GI50 [4]: 1450 nM (inactive)
- GI50 [5]: 2110 nM (inactive)
- GI50 [6]: 8730 nM (inactive)
- GI50 [7]: 1350 nM (inactive)
- GI50 [8]: 1610 nM (inactive)
- GI50 [9]: 1590 nM (inactive)
- GI50 [10]: 2540 nM (inactive)
- GI50 [11]: > 10000 nM (inactive)
- GI50 [12]: > 10000 nM (inactive)
- GI50 [13]: > 10000 nM (inactive)
- GI50 [14]: 2030 nM (inactive)
- GI50 [15]: 1580 nM
- GI50 [16]: 5770 nM (inactive)
- GI50 [17]: 2790 nM (inactive)
- GI50 [18]: 9290 nM (inactive)
- GI50 [19]: 2000 nM (inactive)
- GI50 [20]: 2520 nM (inactive)
- GI50 [21]: > 10000 nM (inactive)
- GI50 [22]: 6820 nM (inactive)
- GI50 [23]: 1830 nM (inactive)
- GI50 [24]: 3210 nM (inactive)
- GI50 [25]: 2330 nM (inactive)
- GI50 [26]: 1210 nM (inactive)
- GI50 [27]: 1320 nM (inactive)
- GI50 [28]: 1320 nM (inactive)
- GI50 [29]: 2040 nM (inactive)
- GI50 [30]: > 10000 nM (inactive)
- GI50 [31]: > 10000 nM (inactive)
- GI50 [32]: > 10000 nM (inactive)
- GI50 [33]: > 10000 nM (inactive)
- GI50 [34]: 1950 nM (inactive)
- GI50 [35]: 1430 nM (inactive)
- GI50 [36]: 4660 nM (inactive)
- GI50 [37]: 2210 nM (inactive)
- GI50 [38]: 4170 nM (inactive)
- GI50 [39]: 1380 nM (inactive)
- GI50 [40]: > 10000 nM (inactive)
- GI50 [41]: 2370 nM (inactive)
- GI50 [42]: 1650 nM (inactive)
- GI50 [43]: 2340 nM (inactive)
- GI50 [44]: 2370 nM (inactive)
- GI50 [45]: > 10000 nM (inactive)
- GI50 [46]: 7550 nM (inactive)
- GI50 [47]: 776 nM (active)
- GI50 [48]: 3300 nM (inactive)
- GI50 [49]: 3560 nM (inactive)
- GI50 [50]: 2970 nM (inactive)
- GI50 [51]: 1700 nM (inactive)
- GI50 [52]: 1370 nM (inactive)
- GI50 [53]: 1400 nM (inactive)
- GI50 [54]: 5300 nM (inactive)
- GI50 [55]: 1910 nM (inactive)
- GI50 [56]: 7190 nM (inactive)
- GI50 [57]: 2620 nM (inactive)
- GI50 [58]: 4560 nM (inactive)
- GI50 [59]: 493 nM (active)
- GI50 [60]: > 10000 nM (inactive)
- GI50 [61]: > 10000 nM (inactive)
- GI50 [62]: 1220 nM (inactive)
- GI50 [63]: 8130 nM (inactive)
- GI50 [64]: 1440 nM (inactive)
- GI50 [65]: 1220 nM (inactive)
- GI50 [66]: 1210 nM (inactive)
